This note sets out measurements from patent US12201634B2, “Methods of treating depression using orexin-2 receptor antagonists” (Janssen Pharmaceutica NV, priority 2016, dated 2025).

Common to all, as to assay type: in vivo, human
For assay [1], the system named is subjects with a diagnosis of MDD. Nature of the assay: HDRS17 / HAM-D6 depression ratings, diphenhydramine and placebo-controlled study (Example 2). The note with it: Day 11. The text has this:
(§1) Men and women with a diagnosis of MDD between the ages of 18 and 64, inclusive, were enrolled.
(§2) (once daily) in the evening over 10 days for women of child bearing potential (WOCBP) or 4 weeks for males and women of non-child bearing potential (WONCBP). […] Males and WONCBP took 1 capsule every evening just before bedtime from Day 1 to Day 28. WOCBP took 1 capsule every evening just before bedtime from Day 1 to Day 10. There were 2 follow up visits occurring at 3 and 14 days.
(§3) For the evaluation of symptoms of depression, assessments were done at screening and during the study. Specifically, symptoms of depression were performed using the Mini International Neuropsychiatric Interview (MINI) 6.0 interview, or Hamilton rating scale for Depression-17 (HDRS17). Also, polysomnography (PSG) was performed to quantify sleep stages including latency to persistent sleep (LSP) and total sleep time (TST). Thereafter, symptoms of depression were taking on days 11 and 29 during treatment and days 3 and 14 following treatment. PSG was recorded overnight after the first and tenth dose administration of study medication.
A HDRS17 total score was calculated by summing the 17 item scores taken during the study. A HDRS17 total score ranges from 0 to 52, with higher scores indicating greater severity of depression. In order to correct for a possible effect of study medication on sleep, sleep-related items were removed from the HDRS17 to calculate a (sleep item)-adjusted HDRS. Accordingly, an adjusted HDRS17 total score was calculated by summing the item scores excluding the 3 insomnia questions (4-Insomnia Early, 5-Insomnia Middle and 6-Insomnia Late). A HDRS17 adjusted total score ranges from 0 to 46. A 6-item subscale from the HDRS17 (HAM-D6) was analyzed and provided information to core depressive symptoms and is sensitive to treatment response. The six items included depressed mood, guilt feelings, work and interests, psychomotor retardation, psychic anxiety, and general somatics (tiredness and pains).
The HAM-D6 score was calculated by summing the 6 items scores, and ranges from 0 to 22. Higher scores indicate greater severity of core symptoms.

Assay [2] has the same test system. Nature of the assay: Polysomnography (TST, LPS) in MDD study (Example 2).
Source text: as §1, §2, §3
The effects of study medication on polysomnography (PSG)-derived parameters was evaluated overnight on Days 1/2 and 10/11. In addition, PSG was recorded up to and following a forced wake overnight on Day 5/6. Two screening PSG recordings were made and baseline values were calculated as the average values recorded at Screening 1 and 2.
TST is defined as total minutes spent in rapid eye movement (REM) and non-REM sleep.
LPS is defined as the elapsed time (in minutes) from lights out to 10 minutes of continuous sleep.

Assay [3] has as its system subjects diagnosed with MDD. Nature of the assay: HDRS17 / HAM-D6 ratings, Group 1 monotherapy (Example 3). The settings on record: Group 1, Day 11. Here is the method:
(§4) Specifically, Compound A was administered to subjects diagnosed with MDD (i) as a monotherapy and (ii) in combination with a known anti-depressant and the symptoms of depression of the subjects evaluated using the HDRS17 and HAM-D6 scale
(§5) Each subject in Group 2 also took an amount of antidepressant selected from duloxetine, citalopram, paroxetine, or sertraline and as prescribed by their attending physician. For the evaluation of symptoms of depression for both groups, assessments were independently performed at screening and on Day 11, i.e., one day after the study, using HDRS17 and HAM-D6 as described in Example 2. In Tables 11-12, # denotes the Cohen effect size, * denotes P<0.05 (statistically significant), and ** denotes P<0.01.

For assay [4], the system named is subjects diagnosed with MDD. As to the kind of experiment: HDRS17 / HAM-D6 ratings, Group 2 adjunctive to antidepressant (Example 3). The settings on record: Group 2 (with antidepressant), Day 11. Here is the method:
as §4, §5

With `CN(C)CCOC(c1ccccc1)c1ccccc1` [Diphenhydramine, diphenhydramine, reference compound], in assay [1], the “Mean HAM-D6, change from baseline” value is on record as −1.8 and the “mean HDRS17 anxiety/somatization factor score, change from baseline” value was −0.9. In assay [1] (q.d. in the evening), the “Mean Adjusted HDRS17 (sleep items removed), change from baseline” value was −2.3 and the “Total HDRS17 mean score, change from baseline” value is on record as −4.1. In addition, in assay [2] (Day 1/2), the “Latency to Persistent Sleep (LPS), change from baseline” value is 6.7 min and the “Total Sleep Time (TST), change from baseline” value is on record as 28.3 min. Also, in assay [2] (Day 10/11), the “Latency to Persistent Sleep (LPS), change from baseline” value was 0.3 min and the “Total Sleep Time (TST), change from baseline” value worked out at 33.92 min. Besides, in assay [2] (overnight on Day 1/2), the “LPS compared to placebo” value is listed as “modestly reduced LPS” and the “TST compared to placebo” value is reported as “increased TST”. In assay [3], the “Adjusted HDRS mean score (SD), change from baseline” value is −2.1 (3.02); the “Anxiety-Somatization Factor mean score (SD), change from baseline” value is recorded as −0.8 (1.17); the “HAM-D6 mean score (SD), change from baseline” value is listed as −1.7 (2.15); the “HDRS17 mean score (SD), change from baseline” value was −4.2 (4.00). For the same compound, in assay [4], the “Adjusted HDRS mean score (SD), change from baseline” value is listed as −3.5 (0.71); the “Anxiety-Somatization Factor mean score (SD), change from baseline” value is listed as −1.5 (0.71); the “HAM-D6 mean score (SD), change from baseline” value is recorded as −2.0 (1.41); the “HDRS17 mean score (SD), change from baseline” value is −3.5 (0.71).
